Measured values taken from patent US6586241B1, “Methods to identify compounds affecting mitochondria” (Johns Hopkins University, priority 1998, dated 2003).
“Also recorded” adds a separate entry of the source. Where two headings read alike, the source gives them in different places.

Experiments:
[1] = tested on: mitochondrial flavoprotein oxidation (mitochondrial KATP channels); experiment: Flavoprotein fluorescence measurement of mitochondrial redox state in intact ventricular myocytes; assay type: cell-based, rabbit
Source text: (§1) In the following Examples, ventricular myocytes were isolated from adult rabbit hearts by conventional enzymatic dissociation, according to Liu, Y., et al., “Synergistic modulation of ATP-sensitive K^+ currents by protein kinase C and adenosine: implications for ischemic preconditioning”, Circ. Res., 1996, 78: 443-454, then washed several times with calcium-free solution. […].
(§2) For whole-cell patch recordings, the internal pipette solution contained (in mM): 120 K-glutamate, 25 KCI, 0.5 MgCl2, 10 K-EGTA, 10 HEPES and 1 MgATP (pH 7.2 with KOH). The external solution included (in mM): 140 NaCl, 5 KCI, 1 CaCl2, 1 MgCl2, and 10 HEPES (pH 7.4 with NaOH). Whole-cell currents were elicited every 6 sec from a holding potential of −80 mV by two consecutive steps to −40 mV (for 100 msec) and 0 mV (for 380 msec). Currents at 0 mV were measured 200 msec into the pulse. Endogenous flavoprotein fluorescence was excited using a xenon arc lamp with a bandpass filter centered at 480 nm, but only during the 100 msec step to −40 mV t to minimize photobleaching. Emitted fluorescence was recorded at 530 nm by a photomultiplier tube and digitized (Digidata 1200, Axon Instruments). (See Paucek, P., et al., “Cardioprotective effect of diazoxide and its interaction with mitochondrial KATP: possible mechanism of cardioprotection”, J. Mol Cell Cardiol, 1997, 29: A199(Abstract)). Relative fluorescence was averaged during the excitation window and calibrated using the values after dinitrophenol (DNP) and sodium cyanide (CN) exposure.

[2] = tested on: rabbit ventricular myocytes; experiment: Simulated ischemia (cell pelleting) and cellular injury, trypan blue; assay type: cell-based; details: for cytotoxicity at 50 µM: Oryctolagus cuniculus, Ventricular myocyte, 50 μM diazoxide, read-out: cells killed (% of viable cells prior to ischemia)
Experimental: In the following Examples, the procedure to determine cell injury was modified from […] al. […]., et al., “An in vitro model of myocardial ischemia utilizing isolated adult rat myocytes”, J. Mol. Cell Cardiol, 1990, 22: 165-181. After cell isolation, cells were washed with incubation buffer (in mM): NaCl 119, NaHCO3 25, KH2PO4 1.2, KCl 4.8, MgSO4 1.2, HEPES 10, glucose 11, and supplemented with creatine, taurine and amino acids (pH 7.4). Calcium was added into the buffer stepwise (0.25 mM every 5 minutes) to a final concentration of 1 mM. An aliquot of each cell suspension (0.5 ml) was placed in a 0.5 ml microcentrifuge tube and centrifuged for 20 seconds into a pellet. Each pellet occupied a volume of about 0.2 ml. Approximately 0.25 ml of excess supernatant was removed to leave a thin fluid layer above the pellet, and 0.2 ml of mineral oil was layered on the top of the pellet to exclude gaseous diffusion. After 60 min and 120 min of pelleting, 5 μl of cell pellet were sampled through the oil layer and mixed with 75 µl of 85 mOsm hypotonic staining solution (in mM): […] Microscopic examination was performed 2-5 min after mixing to determine the permeability of the cells to trypan blue. Cells permeable to trypan blue were counted as dead and expressed as a percentage of the total cells counted (>200 for each sample). The killing of cells by ischemia was quantified as percentage of the vital cells at the beginning of each experiment (78-90% of total, mean=82±1% n=24). The small percentage of cells ( 18%) that were non-viable at the beginning of the experiment were mostly rounded and had been damaged as a known consequence of the enzymatic isolation process. Mitra, R., et al., “A uniform enzymatic method for dissociation of myocytes from hearts and stomachs of vertebrates”, Am. J. Physiol, 1985, 249: […]-[…]. Individual experiments in each of four groups were performed on cells isolated from different hearts. In the control group (Cont), cells were pelleted and sampled at the 60 min and 120 min. For the diazoxide-treated group (Diazo), 50 μM of diazoxide was added into the solution 15 min before the pelleting. In the third group (5-HD), 100 μM of 5-HD was added into the cell suspension 20 min prior to pelleting. Cells in the Diazo+5HD group were treated the same as in the third group except that 50 μM of diazoxide was added into the cell suspension 15 min before pelleting. Once applied, drugs were not washed out, and thus were present throughout the period of simulated ischemia.

[3] = molecular target: T1, sarcolemmal KATP channels (Oryctolagus cuniculus, UniProt O02822+P82451); experiment: Whole-cell patch recording of sarcolemmal KATP current (IKATP); assay type: cell-based, rabbit; details: for activation of IKATP: treatment with diazoxide and 5-HD, FIG. 4
T1 construct: ventricular myocytes were isolated from adult rabbit hearts by conventional enzymatic dissociation; endogenous in cells; host or cells: primary adult rabbit ventricular myocytes
T1 sequence (P82451 whole entry): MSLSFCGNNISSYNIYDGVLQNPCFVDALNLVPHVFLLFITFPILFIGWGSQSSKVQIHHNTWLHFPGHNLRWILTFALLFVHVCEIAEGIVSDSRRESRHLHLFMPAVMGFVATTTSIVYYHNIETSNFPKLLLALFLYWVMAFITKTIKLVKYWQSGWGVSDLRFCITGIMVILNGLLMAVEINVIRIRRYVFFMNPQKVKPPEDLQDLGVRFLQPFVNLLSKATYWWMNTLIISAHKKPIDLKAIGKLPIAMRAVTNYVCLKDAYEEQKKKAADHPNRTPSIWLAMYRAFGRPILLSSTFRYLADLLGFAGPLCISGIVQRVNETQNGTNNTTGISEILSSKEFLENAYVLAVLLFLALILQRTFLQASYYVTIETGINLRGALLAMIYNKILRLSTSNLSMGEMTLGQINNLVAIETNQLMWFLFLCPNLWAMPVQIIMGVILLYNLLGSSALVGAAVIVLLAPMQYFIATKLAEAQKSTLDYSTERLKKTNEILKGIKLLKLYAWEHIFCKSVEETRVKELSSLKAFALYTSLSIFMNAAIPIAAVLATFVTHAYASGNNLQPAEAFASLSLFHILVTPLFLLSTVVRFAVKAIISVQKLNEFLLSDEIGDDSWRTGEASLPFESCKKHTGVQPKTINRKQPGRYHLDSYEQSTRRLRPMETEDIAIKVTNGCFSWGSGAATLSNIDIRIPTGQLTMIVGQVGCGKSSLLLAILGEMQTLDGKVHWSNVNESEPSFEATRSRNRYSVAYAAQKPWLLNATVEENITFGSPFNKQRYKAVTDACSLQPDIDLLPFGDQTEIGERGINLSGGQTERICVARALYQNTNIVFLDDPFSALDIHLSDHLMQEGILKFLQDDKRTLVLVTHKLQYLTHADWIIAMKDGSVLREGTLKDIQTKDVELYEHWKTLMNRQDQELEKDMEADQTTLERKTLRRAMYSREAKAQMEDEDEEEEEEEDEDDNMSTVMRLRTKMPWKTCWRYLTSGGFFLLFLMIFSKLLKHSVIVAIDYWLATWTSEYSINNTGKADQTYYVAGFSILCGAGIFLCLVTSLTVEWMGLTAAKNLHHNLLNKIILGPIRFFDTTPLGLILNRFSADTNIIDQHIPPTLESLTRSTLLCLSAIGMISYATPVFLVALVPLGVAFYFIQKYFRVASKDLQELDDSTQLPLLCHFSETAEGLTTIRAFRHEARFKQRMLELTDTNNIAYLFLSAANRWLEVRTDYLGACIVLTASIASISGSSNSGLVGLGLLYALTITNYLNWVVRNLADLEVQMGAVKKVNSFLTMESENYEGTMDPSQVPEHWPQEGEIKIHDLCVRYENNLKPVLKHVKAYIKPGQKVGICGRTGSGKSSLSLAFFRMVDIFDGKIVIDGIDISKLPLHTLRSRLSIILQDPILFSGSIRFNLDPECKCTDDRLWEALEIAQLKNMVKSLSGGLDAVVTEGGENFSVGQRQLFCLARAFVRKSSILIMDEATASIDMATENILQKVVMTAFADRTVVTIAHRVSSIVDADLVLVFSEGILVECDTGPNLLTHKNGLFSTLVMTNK
T1 sequence (O02822 whole entry): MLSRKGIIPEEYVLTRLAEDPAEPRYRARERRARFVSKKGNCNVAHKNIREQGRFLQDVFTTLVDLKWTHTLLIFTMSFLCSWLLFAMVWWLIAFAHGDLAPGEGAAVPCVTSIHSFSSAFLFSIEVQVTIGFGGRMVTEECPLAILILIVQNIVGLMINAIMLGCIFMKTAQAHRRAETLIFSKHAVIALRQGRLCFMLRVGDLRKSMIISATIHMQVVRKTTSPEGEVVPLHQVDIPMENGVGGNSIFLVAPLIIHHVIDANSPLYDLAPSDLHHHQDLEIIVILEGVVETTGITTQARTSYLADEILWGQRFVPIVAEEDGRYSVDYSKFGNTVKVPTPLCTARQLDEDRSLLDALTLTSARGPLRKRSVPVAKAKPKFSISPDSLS
Source text: as §1, §2

[4] = tested on: mitochondria of ventricular myocytes; assay type: cell-based, rabbit; details: sequential exposure diazoxide, DNP, CN; FIG. 8
Experimental: In the following Examples, Confocal images were obtained using a Diaphot 300 inverted fluorescence microscope with a PCM-2000 confocal scanning attachment (Nikon, Inc.). Fluorescence was excited by the 488 nm line of an argon laser and the emission at 505-535 nm was recorded. A time series of images was collected at intervals of ˜10 sec and baseline, diazoxide, DNP and CN images were enhanced by averaging 8-10 sequential images having stable mean fluorescence intensities during the exposure to each agent.
To localize mitochondria, cells were loaded with 100 nM TMRE, which distributes into negatively charged cellular compartments, for 10 min., (Lemasters, J. J., et al., “Measurement of electrical potential, pH, and free calcium ion concentration in mitochondria of living cells by laser scanning confocal microscopy”, in Anonymous: Methods in Enzymology., New York, Academic Press, 1995, pp 429-417). TMRE fluorescence was excited with the 535 nm line of a helium neon laser and recorded at greater than 605 nm. A pseudocolor palette was applied to visualize the relative increase in mitochondrial flavoprotein oxidation state.
Images were analyzed on a personal computer using the software program ImageTool (University of Texas Health Sciences Center in San Antonio). All the recordings were performed at room temperature (21-22° C.).

[5] = tested on: intact hearts; details: Paucek et al. 1997; cited from earlier work

CCCCCC(O)CCCC(=O)O.[Na] (centres unmarked) [5-HD, 5-hydroxydecanoic acid sodium]
attenuation of the oxidative effect of diazoxide ([1]; 100 μM 5-HD in the presence of diazoxide, FIG. 3): about half | block of flavoprotein oxidation induced by diazoxide ([1]; FIG. 2a): reversibly blocks | flavoprotein oxidation, % of the DNP value ([1]; diazoxide in the presence of 500 μM 5-HD, FIG. 3): 8±3% | block of the protection by diazoxide ([2]; 100 μM 5-HD): completely blocked | activation of IKATP [3]: did not activate

COc1ccc(Cl)cc1C(=O)NCCc1ccc(S(=O)(=O)NC(=O)NC2CCCCC2)cc1 [Glybenclamide]
block of the protection from diazoxide ([2]; 1 μM glybenclamide, data not shown): blocked the protection

CC1=NS(=O)(=O)c2cc(Cl)ccc2N1 [diazoxide]
mitochondrial oxidation, % of the DNP value ([1]; 100 μM, first exposure DIAZO(1), FIG. 3): 48±3% | oxidation of the flavoproteins (flavoprotein fluorescence) ([1]; 100 μM, FIG. 1A): induced reversible oxidation | EC50 ([1]; Oryctolagus cuniculus, Ventricular myocyte, FIG. 5, 5-6 cells per point, read-out: EC50 to induce mitochondrial oxidation): 27 µM | mitochondrial oxidation ([1]; diazoxide exposure in the same cell as pinacidil): 41±5% | flavoprotein oxidation, % of the DNP value ([1]; second exposure DIAZO(2) after washout, same cells, FIG. 3): 43±5% | flavoprotein fluorescence, confocal images [4]: increased fluorescence in strips parallel to the myofibril orientation | cytotoxicity at 50 µM ([2]; 1 h, 60 min simulated ischemia): 18 ± 3% | cytotoxicity at 50 µM ([2]; 2 h, 120 min simulated ischemia): 23 ± 4% | protection of ventricular myocytes compared with preconditioning ([2]; cellular ischemia model): to the same extent as preconditioning | activation of IKATP / membrane currents ([3]; 100 μM, FIG. 1B): did not activate; also recorded: unchanged | activation of IKATP [3]: did not activate | cardioprotective EC25 [5]: 11 µM

CC(N/C(=N\C#N)Nc1ccncc1)C(C)(C)C (centres unmarked) [pinacidil]
mitochondrial oxidation ([1]; pinacidil 100 μM, FIG. 6A): 35±8% | sarcolemmal IKATP ([3]; pinacidil 100 μM, measured at 0 mV, FIG. 6B): 0.74±0.54 nA
